Experiments:
Caco-2 = test: MTT assay; format: cell-based; conditions: Homo sapiens; Caco-2, MTT assay, 24 h incubation
Procedure: (§1) The proliferation of colorectal cancer cells (HCT116, HT29 and Caco-2) was assessed using MTT assay as previously reported. Cells were treated with increasing concentrations of 1, 5, 10, 20, 40, 80 or 100 µM of CP hybrids 4a-j, doxorubicin, or DMSO. See Supplementary Appendix A.

HCT116 = test: MTT assay; format: cell-based; conditions: Homo sapiens, HCT-116, 24 h incubation
Procedure: as §1

HT-29 = test: MTT assay; format: cell-based; conditions: Homo sapiens; HT-29, MTT assay, 24 h incubation
Procedure: as §1

IGROV1 = test: NCI one-dose screen; format: cell-based; conditions: Homo sapiens, IGROV-1; IGROV1, 10 µM; read-out: Growth Percent
Procedure: (§2) For screening of anticancer properties, all the developed compounds were chosen by the (NCI) for in-vitro antitumor evaluation. The assay was carried out using 59 human cancer cell lines obtained from nine tumour subpanels (breast, ovarian, melanoma, leukaemia, renal, CNS, lung, prostate, and colon cancer cell lines). Compounds were assessed at a 10 µM concentration. […] Also, hybrids 4a, 4b, 4e, 4i and 4j produced significant anti-proliferative effect in several cancer cells, particularly in leukaemia (RPMI-8226) and colon (HCT116) cells with growth percent of 47.87, −14.59, −24.56, −24.42, −15.84, −9.74, −53.36, −10.26, −31.29, and −39.51%, respectively.
(§3) The method description for NCI anticancer screening is provided in detail in the standard NCI-60 testing protocol.

SK-MEL-2 = test: NCI one-dose screen; format: cell-based; conditions: Homo sapiens; SK-MEL-2, 10 µM; read-out: Growth Percent
Procedure: as §2, §3

SNB-19 = test: NCI one-dose screen; format: cell-based; conditions: Homo sapiens; SNB-19, 10 µM; read-out: Growth Percent
Procedure: as §2, §3

BT-549 = test: NCI one-dose screen; format: cell-based; conditions: Homo sapiens; BT-549, 10 µM; read-out: Growth Percent
Procedure: as §2, §3

UACC-257 = test: NCI one-dose screen; format: cell-based; conditions: Homo sapiens; UACC-257, 10 µM; read-out: Growth Percent
Procedure: as §2, §3

MOLT-4 = test: NCI one-dose screen; format: cell-based; conditions: Homo sapiens; MOLT-4, 10 µM; read-out: Growth Percent
Procedure: as §2, §3

CAKI-1 = test: NCI one-dose screen; format: cell-based; conditions: Homo sapiens; CAKI-1, 10 µM; read-out: Growth Percent
Procedure: as §2, §3

SN12C = test: NCI one-dose screen; format: cell-based; conditions: Homo sapiens, read-out: Growth Percent
Procedure: as §2, §3

KM12 = test: NCI one-dose screen; format: cell-based; conditions: Homo sapiens; KM12, 10 µM; read-out: Growth Percent
Procedure: as §2, §3

DU-145 = test: NCI one-dose screen; format: cell-based; conditions: Homo sapiens; DU-145, 10 µM; read-out: Growth Percent
Procedure: as §2, §3

OVCAR-5 = test: NCI one-dose screen; format: cell-based; conditions: Homo sapiens; OVCAR-5, 10 µM; read-out: Growth Percent
Procedure: as §2, §3

EKVX = test: NCI one-dose screen; format: cell-based; conditions: Homo sapiens, read-out: Growth Percent
Procedure: as §2, §3

OVCAR-3 = test: NCI one-dose screen; format: cell-based; conditions: Homo sapiens; OVCAR-3, 10 µM; read-out: Growth Percent
Procedure: as §2, §3

MDA-MB-231/ATCC = test: NCI one-dose screen; format: cell-based; conditions: Homo sapiens, read-out: Growth Percent
Procedure: as §2, §3

U251 = test: NCI one-dose screen; format: cell-based; conditions: Homo sapiens, U-251; U251, 10 µM; read-out: Growth Percent
Procedure: as §2, §3

SK-OV-3 = test: NCI one-dose screen; format: cell-based; conditions: Homo sapiens; SK-OV-3, 10 µM; read-out: Growth Percent
Procedure: as §2, §3

NCI-H226 = test: NCI one-dose screen; format: cell-based; conditions: Homo sapiens; NCI-H226, 10 µM; read-out: Growth Percent
Procedure: as §2, §3

SF-539 = test: NCI one-dose screen; format: cell-based; conditions: Homo sapiens; SF-539, 10 µM; read-out: Growth Percent
Procedure: as §2, §3

HT29 = test: NCI one-dose screen; format: cell-based; conditions: Homo sapiens, HT-29; HT29, 10 µM; read-out: Growth Percent
Procedure: as §2, §3

K-562 = test: NCI one-dose screen; format: cell-based; conditions: Homo sapiens, K562; K-562, 10 µM; read-out: Growth Percent
Procedure: as §2, §3

SNB-75 = test: NCI one-dose screen; format: cell-based; conditions: Homo sapiens; SNB-75, 10 µM; read-out: Growth Percent
Procedure: as §2, §3

UACC-62 = test: NCI one-dose screen; format: cell-based; conditions: Homo sapiens; UACC-62, 10 µM; read-out: Growth Percent
Procedure: as §2, §3

TK-10 = test: NCI one-dose screen; format: cell-based; conditions: Homo sapiens; TK-10, 10 µM; read-out: Growth Percent
Procedure: as §2, §3

786-0 = test: NCI one-dose screen; format: cell-based; conditions: Homo sapiens; 786-0, 10 µM; read-out: Growth Percent
Procedure: as §2, §3

OVCAR-8 = test: NCI one-dose screen; format: cell-based; conditions: Homo sapiens; OVCAR-8, 10 µM; read-out: Growth Percent
Procedure: as §2, §3

SR = test: NCI one-dose screen; format: cell-based; conditions: Homo sapiens, read-out: Growth Percent
Procedure: as §2, §3

SW-620 = test: NCI one-dose screen; format: cell-based; conditions: Homo sapiens; SW-620, 10 µM; read-out: Growth Percent
Procedure: as §2, §3

SK-MEL-28 = test: NCI one-dose screen; format: cell-based; conditions: Homo sapiens; SK-MEL-28, 10 µM; read-out: Growth Percent
Procedure: as §2, §3

HCT-116 = test: NCI one-dose screen; format: cell-based, human; conditions: HCT-116, 10 µM; for activity at 10 µM: Homo sapiens, read-out: Growth Percent
Procedure: as §2, §3

RPMI-8226 = test: NCI one-dose screen; format: cell-based, human; conditions: RPMI-8226, 10 µM; for activity at 10 µM: Homo sapiens, read-out: Growth Percent
Procedure: as §2, §3

[1] = system: 59 human cancer cell lines; test: NCI one-dose screen, whole panel; format: cell-based; conditions: Homo sapiens, mean over the panel, read-out: Mean Growth Percent
Procedure: as §2, §3

SMILES | IC50 (Caco-2) [µM] | IC50 (HCT116) [µM] | IC50 (HT-29) [µM] | activity at 10 µM (IGROV1) [%] | activity at 10 µM (SK-MEL-2) [%] | activity at 10 µM (SNB-19) [%] | activity at 10 µM (BT-549) [%] | activity at 10 µM (UACC-257) [%] | activity at 10 µM (MOLT-4) [%] | activity at 10 µM (CAKI-1) [%] | activity at 10 µM (SN12C) [%] | activity at 10 µM (KM12) [%] | activity at 10 µM (DU-145) [%] | activity at 10 µM (OVCAR-5) [%] | activity at 10 µM (EKVX) [%] | activity at 10 µM (OVCAR-3) [%] | activity at 10 µM (MDA-MB-231/ATCC) [%] | activity at 10 µM (U251) [%] | activity at 10 µM (SK-OV-3) [%] | activity at 10 µM (NCI-H226) [%] | further results
O=C(/C=C/c1ccc(Br)cc1)c1ccc(-n2cc(CN3CCN(c4cc5c(cc4F)c(=O)c(C(=O)O)cn5C4CC4)CC3)nn2)cc1 [Compound 4d, (E)-7-(4-((1-(4-(3-(4-bromophenyl)acryloyl)phenyl)-1H-1,2,3-triazol-4-yl)methyl)piperazin-1-yl)-1-cyclopropyl-6-fluoro-4-oxo-1,4-dihydroquinoline-3-carboxylic acid] | 7.19 ± 1.69 | 8.67 ± 2.15 | 62.5 ± 7.1 | 79.4 | 102 | 76.7 | 92.5 | 90.1 | 80.4 | 68.7 | 58.8 | 87.1 | 92.3 | 92.7 | 80.8 | 84.9 | 66.4 | 68.4 | 79 | 74.8 | activity at 10 µM (SF-539): 82.5%; activity at 10 µM (HT29): 99.2%; activity at 10 µM (K-562): 60.7%; activity at 10 µM (SNB-75): 85.7%; activity at 10 µM (UACC-62): 72.8%; activity at 10 µM (TK-10): 97.8%; activity at 10 µM (786-0): 72.2%; activity at 10 µM (OVCAR-8): 80.7%; activity at 10 µM (SR): 21.3%; activity at 10 µM (SW-620): 85.9%; activity at 10 µM (SK-MEL-28): 92%; activity at 10 µM (HCT-116): 17.3%; activity at 10 µM (RPMI-8226): 6.02%; activity at 10 µM [1]: 77.4%
O=C(/C=C/c1ccc(F)cc1)c1ccc(-n2cc(CN3CCN(c4cc5c(cc4F)c(=O)c(C(=O)O)cn5C4CC4)CC3)nn2)cc1 [Compound 4e, (E)-1-cyclopropyl-6-fluoro-7–(4-((1–(4-(3-(4-fluorophenyl)acryloyl)phenyl)-1H-1,2,3-triazol-4-yl)methyl)piperazin-1-yl)-4-oxo-1,4-dihydroquinoline-3-carboxylic acid] | 4.19 ± 1.13 | 4.32 ± 0.98 | 8.67 ± 2.94 | 39.6 | 89 | 31.6 | 32 | 88.3 | 31.8 | 36.9 | 8.77 | 32.9 | 51.6 | 84.2 | 87.5 | 46.6 | 65.3 | 16.6 | 71.6 | 81.7 | activity at 10 µM (SF-539): 27.9%; activity at 10 µM (HT29): 28%; activity at 10 µM (K-562): 21.9%; activity at 10 µM (SNB-75): 68.1%; activity at 10 µM (UACC-62): 55.8%; activity at 10 µM (TK-10): 85.2%; activity at 10 µM (786-0): 33.2%; activity at 10 µM (OVCAR-8): 23.3%; activity at 10 µM (SR): 7.11%; activity at 10 µM (SW-620): 43.2%; activity at 10 µM (SK-MEL-28): 68%; Growth Percent (HCT-116): -10.26%; activity at 10 µM (HCT-116): -10.3%; activity at 10 µM (RPMI-8226): -24.6%; Growth Percent (RPMI-8226): -24.56%; activity at 10 µM [1]: 53.9%

Reference: publication PMC9116245, “New 1,2,3-triazole linked ciprofloxacin-chalcones induce DNA damage by inhibiting human topoisomerase I& II and tubulin polymerization” (Journal of Enzyme Inhibition and Medicinal Chemistry, 2022)
